# Assay results from patent publication US20080050387A1, “Non-Androgen Dependent Roles for Androgen Receptor and Non-Androgen Related Inhibitors of Androgen Receptor” (priority 2003, published 2008).
# Legend:
# [1] = tested on: AR; assay: Mammalian two-hybrid assay hRad9 / AR in PC-3 cells; type: cell-based, human
# Method: PC-3, CWR22R, and LNCaP cell lines were maintained in […] supplemented with 10% fetal calf serum (FCS). Transient transfection for luciferase assays was carried out in 24-well plates (5×10^4 cells per well) using SuperFect as described previously (Lin, H. K., et al., Embo J 21:4037-48 (2002)). DNA mixtures in transfection assay were indicated in each figure. The total amount of transfected DNA was kept constant (1 μg) by adding the corresponding amounts of empty expression plasmids. After transfection, cells were cultured in […] supplemented with 5% charcoal-stripped FCS in the presence or absence of 10 nM dihydrotestosterone (DHT) for 18 h. Luciferase assays were performed as previously described (Yang, L., et al., J Biol Chem 278:16820-7 (2003)). In Western blotting assays, CWR22R or LNCaP cells were transfected by electroporation using 5×10^6 cells/0.4 ml of RPMI medium containing 2% FCS plus 9 μg of the indicated plasmids. 1 μg of EGFP expression vector was used for transfection efficiency. Electroporation was performed at 250 V and 950 μF using Gene Pulser II (Bio-Rad)
# [2] = tested on: AR; assay: AR transactivation luciferase assay in COS-1 cells with GSK3β; type: cell-based, human; settings: ARE4-Luc, 10 nM DHT
# Method: (§1) COS-1 and PC-3 cells were maintained in early to mid-log phase in DMEM medium, supplemented with 10% fetal bovine serum (FBS), 50 units/ml penicillin and 50 μg/ml streptormnycin in incubators with humidified air and 5% carbon dioxide at 37° C. LNCaP cells were maintained in RPMI (GIBCO/BRL) medium. Twenty-four h prior to transfection, cells washed with Hanks' buffered saline solution, trypsinized, and seeded to be a density of 40-60% confluence for transfection. Cells in 12 well plates were refed with fresh medium 2 hours before transfection and transfected according to the “SuperFect Transfection” instructions (QIAGEN). After 2-3 h incubation, cells were treated with medium supplemented with charcoal-dextran treated FBS containing either ethanol or ligands. Cells were further incubated at 37° C. for 24 h, washed with PBS, and harvested.
# Target sequence in this assay (P10275 with tags, fused parts or gaps DEL79-80/DUP473-473): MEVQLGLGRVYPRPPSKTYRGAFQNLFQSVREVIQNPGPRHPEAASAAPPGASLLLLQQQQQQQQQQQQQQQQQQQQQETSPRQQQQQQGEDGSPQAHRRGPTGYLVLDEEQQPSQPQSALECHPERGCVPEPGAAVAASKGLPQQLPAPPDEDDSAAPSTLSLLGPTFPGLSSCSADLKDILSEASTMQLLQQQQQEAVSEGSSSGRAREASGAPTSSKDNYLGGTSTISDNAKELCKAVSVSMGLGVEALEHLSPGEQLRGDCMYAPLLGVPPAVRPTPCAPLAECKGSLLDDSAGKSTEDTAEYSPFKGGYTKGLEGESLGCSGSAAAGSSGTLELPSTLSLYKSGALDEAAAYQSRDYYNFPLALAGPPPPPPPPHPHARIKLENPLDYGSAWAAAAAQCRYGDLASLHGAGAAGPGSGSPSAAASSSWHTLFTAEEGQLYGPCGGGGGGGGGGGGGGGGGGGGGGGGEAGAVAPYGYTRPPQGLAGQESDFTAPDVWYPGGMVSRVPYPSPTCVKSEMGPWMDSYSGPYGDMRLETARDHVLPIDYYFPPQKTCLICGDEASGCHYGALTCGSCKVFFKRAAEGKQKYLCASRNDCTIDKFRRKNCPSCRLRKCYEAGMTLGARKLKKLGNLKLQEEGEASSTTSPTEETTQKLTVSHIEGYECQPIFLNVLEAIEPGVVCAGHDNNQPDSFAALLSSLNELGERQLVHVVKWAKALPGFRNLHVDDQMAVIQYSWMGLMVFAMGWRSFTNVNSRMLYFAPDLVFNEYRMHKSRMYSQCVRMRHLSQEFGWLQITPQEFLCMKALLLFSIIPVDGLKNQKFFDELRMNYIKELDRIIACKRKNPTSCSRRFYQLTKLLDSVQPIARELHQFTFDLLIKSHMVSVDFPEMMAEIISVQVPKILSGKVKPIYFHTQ
# [3] = tested on: CWR22R cells; assay: MTT growth assay of stably transfected CWR22R cells; type: cell-based, human; settings: CWR22R-S9A-GSK3β cells, 10 nM DHT, 2 μg/ml doxycycline, 5 days
# Method: The MTT assay is a quantitative colorimetric assay for mammalian cell survival and proliferation. The 5×10^3 CWR22R cells were seeded in 24-well plates and incubated in RPMI medium 1640 with 5% CS-FCS for 48 h. Cells were then treated with ethanol, 10 nMDHT, and/or 2 μg/ml doxycycline for another 5 days. Then 200 μl of MTT (5 mg/ml; Sigma) was added into the each well with 1 ml of medium for 3 h at 37° C. After incubation, 2 ml of 0.04 M HCl in isopropyl alcohol was added into each well. After 5-min incubation at room temperature, the absorbance was read at a test wavelength of 570 nm.
# [4] = tested on: AR; assay: Luc reporter assay in stably transfected CWR22R cells; type: cell-based, human; settings: CWR22R-S9A-GSK3β cells, doxycycline induction
# Method: as §1
# The S9A-GSK3β gene was inserted into pBig vector with hygromycin resistance. The S9A-GSK3β-transfected CWR22R cells were selected and maintained in RPMI medium containing 50 μg/ml hygromycin (GIBCO).
# [5] = tested on: MAPK; settings: cited from earlier work
# [6] = tested on: AR; assay: TSA effect on AR transactivation, reporter assay in COS-1 cells; type: cell-based, human; settings: 1 nM TSA
# Method: H1299 and COS-1 cells were maintained in Dulbecco's modified Eagle's medium (DMEM) (Life Technologies, Inc.) supplemented with 10% heat inactivated fetal bovine serum (FBS). LNCap cells were maintained in RPMI 1640 supplemented with […]. All media contain 100 units penicillin, 100 μg/ml streptomycin and 2 mM L-glutamine. Cells were seeded to a density of 50-60% confluency for transfection. In transfections where H1299 and COS-1 cells were used, the calcium phosphate precipitation method was used as described (Pan H J, et al. 1999. Endocrine 11:321-327) unless otherwise noted. […] In other reporter gene assays, where ligand treatment was required, cell culture media were changed to DMEM containing 10% charcoal-dextran-stripped FBS (CD-FBS) 2 h before transfection. After 16-18 h transfection, cells were treated with medium containing either vehicle or ligands for another 20-24 h and then cells were harvested. With LNCap cells transfection, the cells were treated with fresh RPMI 1640 containing 10% CD-FBS before transfection with SuperFect performed according to the manufacturer's protocol (Qiagen). After transfection, cells were allowed to recover in fresh RPMI 1640 containing 10% CD-FBS for 8-12 h, and then treated with either vehicle or ligands for another 20-24 h before harvesting. Each experiment was repeated at least three times.
# [7] = tested on: COS-1 and H1299; assay: TSA toxicity in transfected cells
# [8] = tested on: MAPK (GAL4-Elk1 transactivation); assay: GAL4-Elk1 reporter gene assay (MAPK activation) in MCF7 cells; type: cell-based, human
# Method: Cells were plated in 96-well plates and plasmids at 0.5 μg per well were transfected into cells using SuperFect (Qiagen). The medium was changed 2 h after transfection and cells were cultured in the medium containing 10% CDS-FBS or 0.2% HI-FBS for 16 h, followed by treatment with 50 ng/ml EGF, 100 ng/ml IGF-1,100 ng/ml HRG-α 0.1 nM E2, or 1 nM DHT for another 16 h. Cells were then harvested and the luciferase activity was analyzed using Dual-Luciferase Reporter Assay System (Promega). 5 ng pRL-TK per well was used as internal control.
# [9] = tested on: AR expression in AR^+/+ MCF7 cells; assay: AR siRNA transfection of AR+/+ MCF7 cells: Ki67 immunostaining, Ki67 and c-myc mRNA, S-phase entry; type: cell-based, human
# Method: All animal experimentation was conducted in accordance with accepted standards of humane animal care. Tissues were fixed in 4% paraformaldehyde for 24 h at 4° C. Paraffin-embedded tissues were sectioned (5-7 μm) onto Probe-On Plus charged slides (Fisher Scientific, Pittsburgh, Pa.). Fresh mammary gland tissues were frozen in liquid nitrogen and stored at −80° C. before RNA extraction. 3 μg of total RNA was reverse-transcribed (RT) and subjected to real-time PCR using iCycle (Bio-Rad). Primer sequences were designed by Beacon Designer II software (Bio-Rad) and the formula used were described previously (Bieche et al. 2001). β-Actin was used as an internal control.
# For IHC, sections were heated at 55° C. at least 2 h, deparaffinized in xylene, rehydrated, and washed in Tris-buffered saline (TBS)/pH 8.0. For antigen retrieval, slides were microwaved in 0.01 M sodium citrate/pH 6.0, and immersed with 1% hydrogen peroxide in methanol for 30 min, then blocked with 20% normal goat serum in TBS for 60 min. After washing with PBS, sections were incubated for 90 min in different antibody of diluted 1:200 to 1:500 in TBS containing 1% bovine serum albumin (BSA), followed by goat anti-rabbit biotinylated secondary antibody diluted 1:300 in TBS containing 1% BSA. Then sections were incubated with ABC solution for 30 min, followed by development with DAB peroxidase substrate kit (Vector Laboratories) for 5 min. Slides were counterstained with hematoxylin for 30 sec, then dehydrated, cleaned in xylene, and mounted. Primary antibody was replaced with normal rabbit IgG or 1% BSA in TBS for negative controls. For BrdU labeling, BrdU reagent and BrdU staining kit were purchased from Zymed Laboratories.
# A small interfering RNA was expressed in mammalian cells by transfection of a DNA-based vector BS/U6 (Sui et al. 2002) containing a homologous sequence ([…]-TAGCTAC SEQ ID NO:9), a 6-bp spacer (CTCGAG), an inverted homologous sequence ([…] SEQ ID NO:10), and 5 Ts, at the transcription initiation site of the U6 promoter. See SEQ ID NO. 11 and 12 for fall AR siRNA.
# [10] = AR siRNA-transfected AR^+/+ MCF7 cells
molecule,measurement,setting,value
PKKFRSLFFGSI [GAL4-FXXLF fusion peptides],interaction with AR,[1]; 10 nM DHT,Androgen-dependent interactions were demonstrated
S9A-GSK3β: constitutively active form of GSK3β,effect on AR activity,[2],strongly inhibited
same,cell growth (MTT assay),[3],obvious growth arrest
same,AR transactivation reduced by,[4],30%
COc1cccc(-c2cc(=O)c3ccccc3o2)c1N [PD098059],"Her2/Neu-, H-Ras- or C-myc-initiated mammary tumor growth",[5]; Amundadottir and Leder 1998,inhibit
same,mammary gland alveolar morphogenesis,[5]; Niemann et al. 1998,inhibit
"CC(/C=C/C(=O)NO)=C\[C@@H](C)C(=O)c1ccc(N(C)C)cc1 [TSA, trichostatin A]",DHT-induced AR transactivation,[6],enhanced
same,TSA concentration causing significant cell death,[7],≥ 10 nM
same,toxic effect,[7]; 1 nM TSA,no obvious toxic effect
AR siRNA: small interfering RNA against AR expressed from the DNA-based vector BS/U6 (GGGCCCCTGGATGGATAGCTACCTCGAGGTAGCTATCCATCCAGGGGCC),IGF-I/EGF/HRG-α-induced MAPK activation,[8]; AR^+/+ MCF7 cells transfected with AR siRNA,diminish
same,Ki67 immunostaining,[9]; [10],lower degree
same,mRNA level of Ki67 reduced by,[9]; [10],42%
same,mRNA level of c-myc reduced by,[9]; [10],81%
same,number of cells entering S-phase of the cell cycle,"[9]; AR^+/+ MCF7 cells, IGF-I/EGF/HRG-α",diminish
"CC(C)(O)C(=O)Nc1ccc([N+](=O)[O-])c(C(F)(F)F)c1 [HF, hydroxyflutamide, reference compound]",androgen-induced interaction between AR and hRad9,"[1]; 10^−5 M HF, 10^−8 M DHT",inhibited
"N#CC(=C(/N)Sc1ccccc1N)/C(C#N)=C(\N)Sc1ccccc1N [U0126, reference compound]",AR-activated GAL4-Elk1 activity,"[8]; AR-FL-activated, pG5-luc reporter",diminished
